In patent US20250333424A1, “ANTIVIRAL COMPOUNDS” (Gilead Sciences, Inc., priority 2024, published 2025):

System: monocytic THP1 cells infected with HIV VSV-G pseudotyped GFP-NEF reporter virus
Experiment: cells
Type: cell-based
Details: Human immunodeficiency virus 1, THP-1, 24 h

Compound | EC50 [nM]
Cc1cc(/C=C/C#N)c(C(F)(F)F)c(C)c1Oc1nc(NC23CC(C#N)(C2)C3)nc2nn(C)cc12 [Compound 4, (E)-3-((4-(4-(2-cyanovinyl)-2,6-dimethyl-3-(trifluoromethyl)phenoxy)-2-methyl-2H-pyrazolo[3,4-d]pyrimidin-6-yl)amino)bicyclo[1.1.1]pentane-1-carbonitrile] | 1490
Cn1cc2c(Oc3c(F)cc(/C=C/C#N)cc3Cl)nc(NC34CC(C#N)(C3)C4)nc2n1 [Compound 5, (E)-3-((4-(2-chloro-4-(2-cyanovinyl)-6-fluorophenoxy)-2-methyl-2H-pyrazolo[3,4-d]pyrimidin-6-yl)amino)bicyclo[1.1.1]pentane-1-carbonitrile] | 26.1
Cc1cc(/C=C/C#N)cc(Cl)c1Oc1nc(NC23CC(C#N)(C2)C3)nc2nn(C)cc12 [Compound 6, (E)-3-((4-(2-chloro-4-(2-cyanovinyl)-6-methylphenoxy)-2-methyl-2H-pyrazolo[3,4-d]pyrimidin-6-yl)amino)bicyclo[1.1.1]pentane-1-carbonitrile] | 17.4
CCc1cc(/C=C/C#N)cc(Cl)c1Oc1nc(NC23CC(C#N)(C2)C3)nc2nn(C)cc12 [Compound 7, (E)-3-((4-(2-chloro-4-(2-cyanovinyl)-6-ethylphenoxy)-2-methyl-2H-pyrazolo[3,4-d]pyrimidin-6-yl)amino)bicyclo[1.1.1]pentane-1-carbonitrile] | 21.4
Cc1cc(/C=C/C#N)c(C)c(C)c1Oc1nc(NC23CC(C#N)(C2)C3)nc2nn(C)cc12 [Compound 8, (E)-3-((4-(4-(2-cyanovinyl)-2,3,6-trimethylphenoxy)-2-methyl-2H-pyrazolo[3,4-d]pyrimidin-6-yl)amino)bicyclo[1.1.1]pentane-1-carbonitrile] | 44.6
Cc1cc(/C=C/C#N)cc(C)c1Oc1nc(NC23CC(C#N)(C2)C3)nc2ncn(C(F)F)c12 [Compound 12, (E)-3-((6-(4-(2-cyanovinyl)-2,6-dimethylphenoxy)-7-(difluoromethyl)-7H-purin-2-yl)amino)bicyclo[1.1.1]pentane-1-carbonitrile] | 5.68
Cc1cc(/C=C/C#N)cc(C)c1Oc1nc(NC23CC(C#N)(C2)C3)nc2nc(C)n(C(F)F)c12 [Compound 13, (E)-3-((6-(4-(2-cyanovinyl)-2,6-dimethylphenoxy)-7-(difluoromethyl)-8-methyl-7H-purin-2-yl)amino)bicyclo[1.1.1]pentane-1-carbonitrile] | 11.7
Cc1cc(/C=C/C#N)cc(C)c1Oc1nc(NC23CC(C#N)(C2)C3)nc2c1nc(C)n2C(F)F [Compound 15, (E)-3-((6-(4-(2-cyanovinyl)-2,6-dimethylphenoxy)-9-(difluoromethyl)-8-methyl-9H-purin-2-yl)amino)bicyclo[1.1.1]pentane-1-carbonitrile] | 109
CCc1nc2nc(NC34CC(C#N)(C3)C4)nc(Oc3c(C)cc(/C=C/C#N)cc3C)c2n1C(F)F [Compound 17, (E)-3-((6-(4-(2-cyanovinyl)-2,6-dimethylphenoxy)-7-(difluoromethyl)-8-ethyl-7H-purin-2-yl)amino)bicyclo[1.1.1]pentane-1-carbonitrile] | 21.4
Cc1cc(/C=C/C#N)cc(C)c1Oc1nc(NC23CC(C#N)(C2)C3)nc2[nH]c(=O)n(C)c12 [Compound 24, (E)-3-((6-(4-(2-cyanovinyl)-2,6-dimethylphenoxy)-7-methyl-8-oxo-8,9-dihydro-7H-purin-2-yl)amino)bicyclo[1.1.1]pentane-1-carbonitrile] | 32
Cc1cc(/C=C/C#N)cc(C)c1Oc1nc(NC23CC(C#N)(C2)C3)nc2nc(C(F)F)n(C)c12 [Compound 25, (E)-3-((6-(4-(2-cyanovinyl)-2,6-dimethylphenoxy)-8-(difluoromethyl)-7-methyl-7H-purin-2-yl)amino)bicyclo[1.1.1]pentane-1-carbonitrile] | 37.2
Cc1cc(/C=C/C#N)cc(C)c1Oc1nc(NC23CC(C#N)(C2)C3)nc2nc(C(F)F)[nH]c12 [Compound 26, (E)-3-((6-(4-(2-cyanovinyl)-2,6-dimethylphenoxy)-8-(difluoromethyl)-7H-purin-2-yl)amino)bicyclo[1.1.1]pentane-1-carbonitrile] | 347
Cc1cc(/C=C/C#N)cc(C)c1Oc1nc(NC23CC(C#N)(C2)C3)nc2c1n(C(F)F)c(=O)n2C(F)F [Compound 28, (E)-3-((6-(4-(2-cyanovinyl)-2,6-dimethylphenoxy)-7,9-bis(difluoromethyl)-8-oxo-8,9-dihydro-7H-purin-2-yl)amino)bicyclo[1.1.1]pentane-1-carbonitrile] | 44
Cc1cc(/C=C/C#N)cc(C)c1Oc1nc(NC23CC(C#N)(C2)C3)nc2c1ncn2CC1(C#N)CC1 [Compound 45, (E)-3-((9-((1-cyanocyclopropyl)methyl)-6-(4-(2-cyanovinyl)-2,6-dimethylphenoxy)-9H-purin-2-yl)amino)bicyclo[1.1.1]pentane-1-carbonitrile] | 53
COCCNc1nc2nc(NC34CC(C#N)(C3)C4)nc(Oc3c(C)cc(/C=C/C#N)cc3C)c2[nH]1 [Compound 46, (E)-3-((6-(4-(2-cyanovinyl)-2,6-dimethylphenoxy)-8-((2-methoxyethyl)amino)-7H-purin-2-yl)amino)bicyclo[1.1.1]pentane-1-carbonitrile] | 88.6
CCNc1nc2nc(NC34CC(C#N)(C3)C4)nc(Oc3c(C)cc(/C=C/C#N)cc3C)c2[nH]1 [Compound 47, (E)-3-((6-(4-(2-cyanovinyl)-2,6-dimethylphenoxy)-8-(ethylamino)-7H-purin-2-yl)amino)bicyclo[1.1.1]pentane-1-carbonitrile] | 118
Cc1cc(/C=C/C#N)cc(C)c1Oc1nc(NC23CC(C#N)(C2)C3)nc2nc(Nc3ccn(C)n3)[nH]c12 [Compound 48, (E)-3-((6-(4-(2-cyanovinyl)-2,6-dimethylphenoxy)-8-((1-methyl-1H-pyrazol-3-yl)amino)-7H-purin-2-yl)amino)bicyclo[1.1.1]pentane-1-carbonitrile] | 151
Cc1cc(/C=C/C#N)cc(C)c1Oc1nc(NC23CC(C#N)(C2)C3)nc2nc(C3CCCCC3)[nH]c12 [Compound 51, (E)-3-((6-(4-(2-cyanovinyl)-2,6-dimethylphenoxy)-8-cyclohexyl-7H-purin-2-yl)amino)bicyclo[1.1.1]pentane-1-carbonitrile] | 374
Cc1cc(/C=C/C#N)cc(C)c1Oc1nc(NC23CC(C#N)(C2)C3)nc2nc(C3CCOCC3)[nH]c12 [Compound 52, (E)-3-((6-(4-(2-cyanovinyl)-2,6-dimethylphenoxy)-8-(tetrahydro-2H-pyran-4-yl)-7H-purin-2-yl)amino)bicyclo[1.1.1]pentane-1-carbonitrile] | 137
Cc1cc(/C=C/C#N)cc(C)c1Oc1nc(NC23CC(C#N)(C2)C3)nc2nc(C3CCCC3)[nH]c12 [Compound 53, (E)-3-((6-(4-(2-cyanovinyl)-2,6-dimethylphenoxy)-8-cyclopentyl-7H-purin-2-yl)amino)bicyclo[1.1.1]pentane-1-carbonitrile] | 233
Cc1cc(/C=C/C#N)cc(C)c1Oc1nc(NC23CC(C#N)(C2)C3)nc2nc(C3CCC(F)(F)CC3)[nH]c12 [Compound 54, (E)-3-((6-(4-(2-cyanovinyl)-2,6-dimethylphenoxy)-8-(4,4-difluorocyclohexyl)-7H-purin-2-yl)amino)bicyclo[1.1.1]pentane-1-carbonitrile] | 364
Cc1cc(/C=C/C#N)cc(C)c1Oc1nc(NC23CC(C#N)(C2)C3)nc2c1nc(C)n2CCC#N [Compound 57, (E)-3-((9-(2-cyanoethyl)-6-(4-(2-cyanovinyl)-2,6-dimethylphenoxy)-8-methyl-9H-purin-2-yl)amino)bicyclo[1.1.1]pentane-1-carbonitrile] | 147
Cc1cc(/C=C/C#N)cc(C)c1Oc1nc(NC23CC(C#N)(C2)C3)nc2nc(-c3cc[nH]n3)[nH]c12 [Compound 63, (E)-3-((6-(4-(2-cyanovinyl)-2,6-dimethylphenoxy)-8-(1H-pyrazol-3-yl)-7H-purin-2-yl)amino)bicyclo[1.1.1]pentane-1-carbonitrile] | 62.8
Cc1cc(/C=C/C#N)cc(C)c1Oc1nc(NC23CC(C#N)(C2)C3)nc2nc(-c3ccn(C)n3)[nH]c12 [Compound 65, (E)-3-((6-(4-(2-cyanovinyl)-2,6-dimethylphenoxy)-8-(1-methyl-1H-pyrazol-3-yl)-7H-purin-2-yl)amino)bicyclo[1.1.1]pentane-1-carbonitrile] | 132
Cc1cc(/C=C/C#N)cc(C)c1Oc1nc(NC23CC(C#N)(C2)C3)nc2nc(-c3cn[nH]c3)[nH]c12 [Compound 66, (E)-3-((6-(4-(2-cyanovinyl)-2,6-dimethylphenoxy)-8-(1H-pyrazol-4-yl)-7H-purin-2-yl)amino)bicyclo[1.1.1]pentane-1-carbonitrile] | 298
Cc1cc(/C=C/C#N)cc(C)c1Oc1nc(NC23CC(C#N)(C2)C3)nc2nc(Nc3c(C)noc3C)[nH]c12 [Compound 67, (E)-3-((6-(4-(2-cyanovinyl)-2,6-dimethylphenoxy)-8-((3,5-dimethylisoxazol-4-yl)amino)-7H-purin-2-yl)amino)bicyclo[1.1.1]pentane-1-carbonitrile] | 231
Cc1cc(/C=C/C#N)cc(C)c1Oc1nc(NC23CC(C#N)(C2)C3)nc2nc(Nc3ccccn3)[nH]c12 [Compound 68, (E)-3-((6-(4-(2-cyanovinyl)-2,6-dimethylphenoxy)-8-(pyridin-2-ylamino)-7H-purin-2-yl)amino)bicyclo[1.1.1]pentane-1-carbonitrile] | 273
Cc1cc(/C=C/C#N)cc(C)c1Oc1nc(NC23CC(C#N)(C2)C3)nc2nc(Nc3cccnc3)[nH]c12 [Compound 69, (E)-3-((6-(4-(2-cyanovinyl)-2,6-dimethylphenoxy)-8-(pyridin-3-ylamino)-7H-purin-2-yl)amino)bicyclo[1.1.1]pentane-1-carbonitrile] | 496
Cc1cc(/C=C/C#N)cc(C)c1Oc1nc(NC23CC(C#N)(C2)C3)nc2nc(Nc3ccccc3)[nH]c12 [Compound 70, (E)-3-((6-(4-(2-cyanovinyl)-2,6-dimethylphenoxy)-8-(phenylamino)-7H-purin-2-yl)amino)bicyclo[1.1.1]pentane-1-carbonitrile] | 415
